In patent publication US6177542A, “Integrin-binding peptides” (The Burnham Institute, priority 1997, dated 2001):
pIC50: −log10 of the molar value. Positions of bridges follow the written chain, without caps; N, C: chain ends. Residues, ends and D or L forms follow the SMILES beside them. No end group written: not given here.

Legend:
α5β1 and αvβ3 integrins = experiment: competitive binding assays for relative binding affinities of peptide motifs; set-up: species or system human; conditions: for relative binding affinity class (in words): competitive binding assays
αvβ3 integrin [1] = molecular target: T1, αvβ3 integrin (Homo sapiens, UniProt P05106+P06756); experiment: inhibition of NGRAHA-phage binding to αvβ3; conditions: means from duplicate wells
T1 construct: The α5β1 and αvβ3 integrins were isolated from human placenta; from tissue; host or cells: human placenta
T1 sequence (P06756 31-889 limits assumed): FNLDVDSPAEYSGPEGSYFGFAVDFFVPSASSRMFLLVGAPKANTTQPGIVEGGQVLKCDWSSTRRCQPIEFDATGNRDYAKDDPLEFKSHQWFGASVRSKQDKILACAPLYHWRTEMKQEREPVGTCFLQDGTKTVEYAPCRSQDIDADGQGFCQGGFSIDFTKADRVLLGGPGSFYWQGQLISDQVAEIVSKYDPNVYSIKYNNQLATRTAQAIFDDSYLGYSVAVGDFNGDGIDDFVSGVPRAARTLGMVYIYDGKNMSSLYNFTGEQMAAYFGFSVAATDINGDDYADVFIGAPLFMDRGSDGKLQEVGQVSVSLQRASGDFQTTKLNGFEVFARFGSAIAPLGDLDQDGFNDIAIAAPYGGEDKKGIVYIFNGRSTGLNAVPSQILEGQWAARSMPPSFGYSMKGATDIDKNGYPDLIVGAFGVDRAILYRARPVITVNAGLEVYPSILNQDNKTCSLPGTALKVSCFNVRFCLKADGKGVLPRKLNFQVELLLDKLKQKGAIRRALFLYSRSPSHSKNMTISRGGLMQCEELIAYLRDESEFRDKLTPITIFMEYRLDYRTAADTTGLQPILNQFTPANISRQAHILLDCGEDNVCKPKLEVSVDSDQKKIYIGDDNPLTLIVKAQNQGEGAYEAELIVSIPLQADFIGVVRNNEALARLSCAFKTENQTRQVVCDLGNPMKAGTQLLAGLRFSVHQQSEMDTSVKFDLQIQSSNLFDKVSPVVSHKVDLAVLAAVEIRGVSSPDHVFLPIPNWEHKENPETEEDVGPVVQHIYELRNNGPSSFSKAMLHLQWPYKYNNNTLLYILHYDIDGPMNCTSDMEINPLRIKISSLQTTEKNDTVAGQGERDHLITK
T1 sequence (P06756 891-1048 limits assumed): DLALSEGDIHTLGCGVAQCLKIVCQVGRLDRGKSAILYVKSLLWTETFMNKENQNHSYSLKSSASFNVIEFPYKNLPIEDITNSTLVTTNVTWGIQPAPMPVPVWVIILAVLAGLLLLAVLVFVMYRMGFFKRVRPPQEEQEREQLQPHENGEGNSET
T1 sequence (P05106 27-788): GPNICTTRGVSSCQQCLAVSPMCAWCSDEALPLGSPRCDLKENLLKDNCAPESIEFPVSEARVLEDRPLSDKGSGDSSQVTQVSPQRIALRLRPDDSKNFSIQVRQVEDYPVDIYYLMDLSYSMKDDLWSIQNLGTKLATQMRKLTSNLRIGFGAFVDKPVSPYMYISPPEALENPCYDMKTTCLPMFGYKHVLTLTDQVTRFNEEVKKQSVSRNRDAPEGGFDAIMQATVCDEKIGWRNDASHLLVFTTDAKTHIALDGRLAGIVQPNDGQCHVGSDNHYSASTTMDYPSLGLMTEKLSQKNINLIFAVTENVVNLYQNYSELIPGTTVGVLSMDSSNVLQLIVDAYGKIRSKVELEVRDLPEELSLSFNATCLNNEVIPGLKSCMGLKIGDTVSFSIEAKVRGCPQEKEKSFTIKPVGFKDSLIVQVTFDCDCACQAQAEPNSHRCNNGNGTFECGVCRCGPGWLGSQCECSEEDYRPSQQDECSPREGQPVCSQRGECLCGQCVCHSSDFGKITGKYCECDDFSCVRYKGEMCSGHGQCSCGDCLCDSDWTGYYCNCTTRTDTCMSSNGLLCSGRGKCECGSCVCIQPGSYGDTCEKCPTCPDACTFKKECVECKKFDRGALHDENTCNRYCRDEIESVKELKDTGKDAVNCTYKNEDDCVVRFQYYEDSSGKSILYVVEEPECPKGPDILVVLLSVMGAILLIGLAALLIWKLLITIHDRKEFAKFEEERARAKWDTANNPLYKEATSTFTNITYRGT
Source text: (§1) The α5β1 and αvβ3 integrins were isolated from human placenta as described in Pytela et al., PNAS USA.
(§2) Selected peptides were studied for their ability to bind to the αvβ3 integrin by using integrin bound on anti-αv or anti-β3 antibody coating. Microliter wells were coated with β3 antibodies to bind specifically the αvβ3 integrin. […] The bound phage were eluted with low pH buffer and quantitated by infection of bacteria as described above. The IC50 values are means from duplicate wells. ND means not determined.

α5β1 integrin [2] = molecular target: T2, α5β1 integrin (Homo sapiens, UniProt P05556+P08648); experiment: fibronectin binding assay: inhibition of 125I-labeled fibronectin binding to immobilized α5β1; conditions: FIG. 2, FIG. 3
T2 construct: The α5β1 and αvβ3 integrins were isolated from human placenta; from tissue; host or cells: human placenta
T2 sequence (P08648 42-894 limits assumed): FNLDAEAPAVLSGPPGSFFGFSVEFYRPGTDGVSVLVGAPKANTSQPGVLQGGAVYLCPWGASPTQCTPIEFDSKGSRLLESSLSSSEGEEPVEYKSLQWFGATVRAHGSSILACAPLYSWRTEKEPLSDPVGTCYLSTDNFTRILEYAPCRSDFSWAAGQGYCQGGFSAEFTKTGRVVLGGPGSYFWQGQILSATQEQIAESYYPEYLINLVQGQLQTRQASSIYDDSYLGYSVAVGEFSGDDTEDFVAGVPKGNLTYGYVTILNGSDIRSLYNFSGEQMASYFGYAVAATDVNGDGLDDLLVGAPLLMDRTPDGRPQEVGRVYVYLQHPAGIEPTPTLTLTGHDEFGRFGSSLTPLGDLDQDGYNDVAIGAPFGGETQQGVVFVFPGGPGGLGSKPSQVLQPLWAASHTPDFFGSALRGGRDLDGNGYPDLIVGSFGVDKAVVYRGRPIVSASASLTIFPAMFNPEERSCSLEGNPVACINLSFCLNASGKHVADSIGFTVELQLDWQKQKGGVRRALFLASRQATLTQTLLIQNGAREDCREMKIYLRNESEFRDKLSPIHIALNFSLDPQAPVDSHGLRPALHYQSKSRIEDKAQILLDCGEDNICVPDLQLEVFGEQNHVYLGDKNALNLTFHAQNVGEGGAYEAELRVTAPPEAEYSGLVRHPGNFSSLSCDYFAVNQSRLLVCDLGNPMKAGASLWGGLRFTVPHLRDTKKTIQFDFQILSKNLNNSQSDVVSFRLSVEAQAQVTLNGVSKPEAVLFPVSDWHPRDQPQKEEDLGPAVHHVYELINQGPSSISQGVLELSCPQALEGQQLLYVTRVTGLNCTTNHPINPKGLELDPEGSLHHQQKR
T2 sequence (P08648 895-1049 limits assumed): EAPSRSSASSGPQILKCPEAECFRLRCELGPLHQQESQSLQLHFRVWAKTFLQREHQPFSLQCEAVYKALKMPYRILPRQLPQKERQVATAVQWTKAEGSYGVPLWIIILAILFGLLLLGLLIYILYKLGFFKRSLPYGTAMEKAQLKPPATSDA
T2 sequence (P05556 21-798): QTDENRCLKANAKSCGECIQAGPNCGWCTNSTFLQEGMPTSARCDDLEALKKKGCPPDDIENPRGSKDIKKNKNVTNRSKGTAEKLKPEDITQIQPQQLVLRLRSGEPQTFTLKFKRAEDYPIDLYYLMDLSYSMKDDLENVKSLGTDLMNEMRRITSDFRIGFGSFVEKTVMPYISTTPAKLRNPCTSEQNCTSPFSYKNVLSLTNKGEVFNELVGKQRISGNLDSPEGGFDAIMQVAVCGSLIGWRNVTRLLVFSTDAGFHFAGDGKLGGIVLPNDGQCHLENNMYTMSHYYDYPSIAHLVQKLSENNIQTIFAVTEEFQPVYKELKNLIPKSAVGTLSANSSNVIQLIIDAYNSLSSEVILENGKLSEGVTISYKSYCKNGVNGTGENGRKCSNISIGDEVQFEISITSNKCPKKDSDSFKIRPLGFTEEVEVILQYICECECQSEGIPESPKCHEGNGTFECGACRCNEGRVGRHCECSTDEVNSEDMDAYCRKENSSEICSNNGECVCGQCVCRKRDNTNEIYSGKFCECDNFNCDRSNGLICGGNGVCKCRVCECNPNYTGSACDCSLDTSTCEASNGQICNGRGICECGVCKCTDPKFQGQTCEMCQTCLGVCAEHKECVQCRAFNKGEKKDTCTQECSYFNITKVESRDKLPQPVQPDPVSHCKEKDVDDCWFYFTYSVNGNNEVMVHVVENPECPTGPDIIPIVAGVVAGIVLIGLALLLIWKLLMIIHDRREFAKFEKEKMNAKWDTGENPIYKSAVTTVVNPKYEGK
Experimental: Microtiter wells were coated with anti-α5 specific antibody by incubating overnight at an antibody concentration of 10 μg/ml, followed by BSA. α5β1 integrin then was bound to α5specific antibody-coated wells by incubating 300 μl of a placental extract per well in TBS buffer containing 0.1 M octylglucoside, 1 mM CaCl2, 1 mM MnCl2 and proteinase inhibitors overnight at 4° C. according to Pytela et al., Methods Enzymol 144: 475-489 (1987), which is herein incorporated by reference. Alternatively, the α5β1 integrin was directly coated on plastic as described above. The wells were extensively washed with TBS containing 0.1% NP-40™. ^125 I-labeled fibronectin (100,000 cpm per well) was incubated in the presence of competing peptides for 1 hour at 25° C. in 100 μl volume of TBS containing 0.1% NP-40™ detergent and 1 mM MnCl 2. After repeated washing, the radioactivity remaining bound was quantitated with a gamma counter.
Next, three of these four peptides were compared for efficiencies in inhibiting binding of ^125 I-labeled fibronectin to immobilized α5β1, according to the fibronectin binding assay described in the Example above. Anti-α5 antibodies were used to tether α5β1 onto microliter wells. ^125 I-labeled fibronectin was incubated in the coated wells in the presence of competing peptides for 1 hour. After washing, the radioactivity that remained bound was determined. The data represent means from duplicate wells.

αvβ5 = molecular target: T3, αvβ5 (Homo sapiens, UniProt P06756+P18084); experiment: cell attachment assay: HT29 cells to vitronectin; format: cell-based
T3 construct: endogenous in cells; host or cells: HT29
Source text: (§3) CHO cell lines expressing α5β1 (the B2/α27 clone, as described in Bauer et al., J. Cell. Biol. 116:477-487 (1992)), or CHO cell lines expressing αvβ1 (B2/v7 clone, described in Zhang et al., J. Cell. Biol. 122:235-242 (1993)) were used in these assays. Cell lines expressing fibronectin-binding integrins were used to determine peptide activities against these integrins in the cell attachment assay described in Ruoslahti et al. Methods Enzymol. 144:803-831 […]. The vitronectin-binding integrins αvβ5 and αvβ3 were assayed using the cell lines HT29 and IMR90, respectively, which were described in Koivunen et al. J. Biol. Chem. 268:205-210 (1993).
(§4) Human plasma fibronectin and vitronectin were iodinated as described in Morla and Ruoslahti, J. Cell Biol. 118:421-429 (1992), which is incorporated herein by reference. […] The input ell number was approximately 2×10^4 and attachment was quantitated by staining with 0.1% amido black.
(§5) Selected peptides were tested for inhibitory activity in cell attachment assays. The assays are described in detail in the Example above. The cells used in the various experiments were: (A) α5 -transfected CHO cells B2/α27 (α5β1); αv -transfectedCHO cells 32/v7 (αvβ1); (C) HT29 cells (αvβ5); (D) IMR90 cells (αvβ3). […]

αvβ3 integrin [3] = molecular target: T1, αvβ3 integrin; experiment: binding of peptides to αvβ3 integrin bound on anti-αv or anti-β3 antibody coating
Source text: Selected peptides were studied for their ability to bind to the αvβ3 integrin by using integrin bound on anti-αv or anti-β3 antibody coating. Microliter wells were coated with β3 antibodies to bind specifically the αvβ3 integrin. The input of CRGDCL (SEQ ID NO:01)-containing phage and NGRAHA (SEQ ID NO:04)-containing phage were 2×10^12 and 5×10^12 TU per well, respectively. The bound phage were eluted with low pH buffer and quantitated by infection of bacteria as described above. The IC50 values are means from duplicate wells. ND means not determined.

α5β1 integrin [4] = molecular target: T2, α5β1 integrin; experiment: phage attachment assay: inhibition of CRGDCL-phage binding to α5β1 integrin; conditions: FIG. 1
Experimental: as §1
CRGDCL-displaying phage were incubated for 1 hour in the presence of various concentrations of the peptides to be tested in microtiter wells coated with the α5β1 integrin. […] Specific binding was quantitated by added K9lkan bacteria directly to the wells and growing the bacteria overnight at room temperature in the presence of tetracycline as described in Smith and Scott, Meth. Enzymol. […] The data represent means from duplicate wells.

αvβ3 integrin [5] = molecular target: T1, αvβ3 integrin; experiment: inhibition of CRGDCL-phage binding to αvβ3; conditions: means from duplicate wells
Source text: as §1, §2

α5β1 = molecular target: T4, α5β1 (UniProt G3HZ55+P08648); experiment: cell attachment assay: α5-transfected CHO cells B2/α27 to fibronectin; format: cell-based; conditions: FIG. 4A, read-out: IC50, inhibition of α5β1-mediated cell attachment to fibronectin
T4 construct: expressed in transfected cells; host or cells: CHO B2/α27 clone
T4 sequence (P08648 42-894 limits assumed): as the sequence (P08648 42-894 limits assumed) above
T4 sequence (P08648 895-1049 limits assumed): as the sequence (P08648 895-1049 limits assumed) above
T4 sequence (G3HZ55 21-798): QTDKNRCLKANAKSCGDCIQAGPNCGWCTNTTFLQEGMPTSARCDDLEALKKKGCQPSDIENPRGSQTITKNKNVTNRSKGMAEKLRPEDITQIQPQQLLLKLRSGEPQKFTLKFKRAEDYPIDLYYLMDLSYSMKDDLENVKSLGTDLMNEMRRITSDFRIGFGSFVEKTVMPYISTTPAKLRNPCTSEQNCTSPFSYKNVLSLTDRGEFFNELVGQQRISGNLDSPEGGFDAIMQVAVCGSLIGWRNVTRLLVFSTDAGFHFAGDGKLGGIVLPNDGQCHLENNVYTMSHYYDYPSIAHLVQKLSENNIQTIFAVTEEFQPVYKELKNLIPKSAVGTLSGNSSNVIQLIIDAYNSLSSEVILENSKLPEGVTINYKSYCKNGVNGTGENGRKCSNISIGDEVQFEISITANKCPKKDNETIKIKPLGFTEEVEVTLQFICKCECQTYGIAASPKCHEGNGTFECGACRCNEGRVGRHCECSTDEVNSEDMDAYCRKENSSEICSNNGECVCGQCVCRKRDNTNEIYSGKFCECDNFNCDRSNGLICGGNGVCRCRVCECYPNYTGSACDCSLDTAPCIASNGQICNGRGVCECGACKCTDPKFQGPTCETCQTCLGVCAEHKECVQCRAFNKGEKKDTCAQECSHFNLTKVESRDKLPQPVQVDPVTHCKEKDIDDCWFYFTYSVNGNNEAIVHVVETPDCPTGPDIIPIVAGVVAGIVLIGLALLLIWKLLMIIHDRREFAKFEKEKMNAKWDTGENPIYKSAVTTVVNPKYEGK
Source text: as §3, §4, §5

α5β1 integrin [6] = molecular target: T2, α5β1 integrin; experiment: inhibition of ELRGDGW-containing phage binding to α5β1 integrin; conditions: 1 hour at room temperature
Experimental: Phage carrying the insert ELRGDGW (SEQ ID NO 24) were added together with various concentrations of the cyclic peptide […] (SEQ ID NO:03) into microliter wells coated with the α5β1 integrin and incubated for 1 hour at room temperature. The 15 phage which remained bound to the wells were quantitated by growing the K9lkan bacteria in the wells overnight at room temperature in the presence of tetracycline. The absorbance that indicates the growth of bacteria infected with phage was measured at 600 nm with an ELISA reader.

| Molecule | relative binding affinity class (in words) (α5β1 and αvβ3 integrins) | pIC50 (αvβ3 integrin [1]) | activity in inhibiting 125I-fibronectin binding to α5β1 (in words) (α5β1 integrin [2]) | pIC50 (αvβ3 integrin [5]) | other results |
| --- | --- | --- | --- | --- | --- |
| CVLNGRME | moderate affinities | – | – | – | – |
| N=C(N)NCCC[C@H](NC(=O)CNC(=O)[C@H](CC(=O)O)NC(=O)[C@@H](N)CO)C(=O)O [SDGR, reference compound] (H-SDGR-OH) | – | < 4.00 | – | – | – |
| SDGRAHS (SDGRAHA) [DGRAHA with a serine residue included at the amino terminus] | – | – | essentially devoid of activity | – | – |
| DGRAHA [DGRAHA] | – | 4.00 | – | – | IC50 against αvβ5 compared with the standard GRGDSP (αvβ5): equal to the standard GRGDSP |
| SRRGDL [RGD peptide] | – | – | – | – | binding to αvβ3 (in words) (αvβ3 integrin [3]): bound |
| NGRAHA [NGRAHA] | – | 4.52 | active | 3.70 | pIC50 (α5β1 integrin [4]; CRGDCL-phage, α5β1, read-out: IC50 in the phage assay (unit inferred)): 4.52 |
| CC(C)C[C@H](NC(=O)[C@@H]1CSSC[C@H](NC(=O)[C@H](C)NC(=O)CN)C(=O)N[C@@H](CCCNC(=N)N)C(=O)NCC(=O)N[C@@H](CC(=O)O)C(=O)N1)C(=O)NCC(=O)N[C@@H](C)C(=O)O [GAC*RGDC*LGA] (H-GACRGDCLGA-OH; disulfide 3-7) | – | – | – | 7.00 | pIC50 (α5β1 integrin [4]; 1 hour, means from duplicate wells, read-out: IC50 (half-maximal inhibitory concentration), inhibition of CRGDCL-phage binding to α5β1): 7.70; pIC50 (α5β1): 4.00; pIC50 (α5β1 integrin [6]): ~6.30 |
| CRGDC (disulfide 1-5 (inferred)) [cyclic peptide motif] | High affinity | – | – | – | – |
| CRGDCL (disulfide 1-5 (inferred)) | High affinity | – | very effective | – | binding to αvβ3 (in words) (αvβ3 integrin [3]): bound; binding affinity compared with similar linear peptides, as judged by the IC50 value (α5β1 and αvβ3 integrins; both α5β1 and αvβ3 integrins): about 10 times |
| GATIRSVDGA | – | – | – | ~4.00 | – |
